Tests used:
[1] = system: BALB/c mice immunized with human quadrivalent influenza vaccine; type: in vivo; conditions: 16 days post-immunization; flow cytometry; vaccine plus cardiolipin compared to vehicle or vaccine only; FIG. 3A-3H
[2] = system: BALB/c mice immunized with human quadrivalent influenza vaccine; type: in vivo

CCCCC/C=C\C/C=C\CCCCCCCC(=O)OC[C@H](COP(=O)([O-])OCC(O)COP(=O)([O-])OC[C@@H](COC(=O)CCCCCCC/C=C\C/C=C\CCCCC)OC(=O)CCCCCCC/C=C\C/C=C\CCCCC)OC(=O)CCCCCCC/C=C\C/C=C\CCCCC.[Na+].[Na+] (stereo partly shown) [cardiolipin (C18:2)4]
cells producing the examined cytokines (IFN-γ, IL-4 and IL-17A) in inguinal lymph nodes [1]: significant increase | accelerated seroconversion (time post-immunization) ([2]; 100 μg/kg cardiolipin (C18:2)4 mixed with […] TETRA vaccine (1 microgram HA), intramuscular and subcutaneous, cardiolipin booster at day 10, compared to vehicle or vaccine only): 7 days | vaccine antigen-specific antibodies in sera ([2]; 13 days post-immunization, 100 μg/kg cardiolipin (C18:2)4 with vaccine, compared to vehicle or vaccine only, FIG. 2A-2B (IgM, IgG)): significantly higher | subclasses of virus-specific antibodies elicited (Th1/Th2 response) ([2]; serum IgG, IgG1, IgG2a, IgG2b by ELISA, FIG. 2C-2F): elicited both IgG2a and IgG1 subclasses of virus-specific antibodies, indicating a balanced Th1/Th2 response

— patent US11786592B2, “Compositions of cardiolipin adjuvants and methods of use thereof” (The University of Hong Kong, priority 2021, dated 2023)
